Test results reported in patent US8455534B2, “Estrogen receptor modulators and uses thereof” (Aragon Pharmaceuticals, Inc., priority 2010, dated 2013).

Legend:
[1] = test system: MCF-7 cells; experiment: Breast Cancer Cell Viability Assay (MCF-7, CellTiter-Glo); assay type: cell-based; conditions: 5 days' compound exposure; for IC50: Homo sapiens, MCF7, 120 h
Summary of the method: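 MCF-7 cells, 320 per well in RPMI with 10% FBS and 20 mM HEPES, adhered overnight, then exposed 5 days to an eleven-point semilog dilution (final 0.3-0.000003 μM). CellTiter-Glo luminescence read; % viability = (sample − cell-free background)/(untreated − background) × 100.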

[2] = biological target: T1, ER-α (Homo sapiens, UniProt P03372); experiment: Breast Cancer Cell ER-α In Cell Western Assay (SP1); assay type: cell-based; conditions: MCF-7 cells, SP1 antibody, 4 or 24 hr post compound addition; for Emax: MCF7, read-out: ER-α In Cell Western Assay (SP1) Max Response; for DC50: read-out: ER-α In Cell Western Assay (SP1) IC50
T1 sequence (P03372 1-595): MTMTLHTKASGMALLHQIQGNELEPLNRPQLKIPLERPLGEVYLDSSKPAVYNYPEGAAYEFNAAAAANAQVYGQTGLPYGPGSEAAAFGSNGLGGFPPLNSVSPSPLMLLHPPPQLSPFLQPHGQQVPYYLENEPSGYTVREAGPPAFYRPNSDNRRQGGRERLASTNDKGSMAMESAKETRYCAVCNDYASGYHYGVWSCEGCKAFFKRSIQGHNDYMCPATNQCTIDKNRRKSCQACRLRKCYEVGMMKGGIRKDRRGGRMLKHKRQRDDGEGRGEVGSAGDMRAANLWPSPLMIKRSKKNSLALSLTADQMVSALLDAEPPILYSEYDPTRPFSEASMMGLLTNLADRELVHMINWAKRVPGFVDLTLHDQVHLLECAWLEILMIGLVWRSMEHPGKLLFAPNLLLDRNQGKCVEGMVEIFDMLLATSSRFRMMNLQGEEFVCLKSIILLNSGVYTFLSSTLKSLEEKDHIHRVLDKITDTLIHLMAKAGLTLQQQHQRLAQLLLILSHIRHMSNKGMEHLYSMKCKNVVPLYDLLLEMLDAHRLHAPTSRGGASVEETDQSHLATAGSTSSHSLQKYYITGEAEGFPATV
Summary of the method: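 ER-α protein levels measured by in-cell western with SP1 antibody, ratioed to DRAQ5 DNA signal and given as percent of untreated controls. Compounds added at 0.3–0.000003 μM final (eleven semilog points) to adherent MCF-7 cells in stripped serum; exposure 4 or 24 h before fixation.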

| SMILES | MCF7 Viability Assay Max Response [1] | IC50 [1] [nM] | Emax [2] [%] | DC50 [2] [nM] |
| --- | --- | --- | --- | --- |
| CC/C(=C(/c1ccc(/C=C/C(=O)O)cc1)c1ccc2[nH]ncc2c1)c1ccc(F)c(C)c1 [Compound 29, (E)-3-(4-((E)-2-(4-Fluoro-3-methylphenyl)-1-(1H-indazol-5-yl)but-1-en-1-yl)phenyl)acrylic acid] | ++ (++ = a single % value ≧ 40%) | ≤ 100 | ≥ 40 | ≤ 100 |
| CC/C(=C(/c1ccc(/C=C/C(=O)O)cc1)c1ccc2[nH]ncc2c1)c1ccccc1CO [Compound 8, (E)-3-(4-((E)-2-(2-(Hydroxymethyl)phenyl)-1-(1H-indazol-5-yl)but-1-en-1-yl)phenyl)acrylic acid] | ++ (++ = a single % value ≧ 40%) | > 100 | ≥ 40 | ≤ 100 |
| CC/C(=C(/c1ccc(/C=C/C(=O)O)cc1)c1ccc2[nH]ncc2c1)c1ccc(C#N)cc1 [Compound 45, (E)-3-(4-((E)-2-(4-Cyanophenyl)-1-(1H-indazol-5-yl)but-1-en-1-yl)phenyl)acrylic acid] | ++ (++ = a single % value ≧ 40%) | ≤ 100 | ≥ 40 | – |
| O=C(O)/C=C/c1ccc(/C(=C(\c2ccccc2)C2CC2)c2ccc3[nH]ncc3c2)cc1 [Compound 24, (E)-3-(4-((E)-2-Cyclopropyl-1-(1H-indazol-5-yl)-2-phenylvinyl)phenyl)acrylic acid] | ++ (++ = a single % value ≧ 40%) | ≤ 100 | ≥ 40 | ≤ 100 |
| CC/C(=C(/c1ccc(/C=C/C(=O)O)c(Cl)c1)c1ccc2[nH]ncc2c1)c1ccccc1 [Compound 102, (E)-3-(4-((Z)-1-(1H-Indazol-5-yl)-2-phenylbut-1-en-1-yl)-2-chlorophenyl)acrylic acid] | ++ (++ = a single % value ≧ 40%) | ≤ 100 | ≥ 40 | ≤ 100 |
| CC/C(=C(/c1ccc(/C=C/C(=O)O)cc1)c1ccc2[nH]ncc2c1)c1cccc(F)c1 [Compound 17, (E)-3-(4-((E)-2-(3-Fluorophenyl)-1-(1H-indazol-5-yl)but-1-en-1-yl)phenyl)acrylic acid] | ++ (++ = a single % value ≧ 40%) | ≤ 100 | ≥ 40 | ≤ 100 |
| Cc1cc(Cl)ccc1/C(=C(\c1ccc(/C=C/C(=O)O)cc1)c1ccc2[nH]ncc2c1)C1CC1 [Compound 126, (E)-3-(4-((E)-2-(4-Chloro-2-methylphenyl)-2-cyclopropyl-1-(1H-indazol-5-yl)vinyl)phenyl)acrylic acid] | ++ (++ = a single % value ≧ 40%) | ≤ 100 | ≥ 40 | ≤ 100 |
| CC/C(=C(/c1ccc(/C=C/C(=O)O)cc1)c1ccc2[nH]ncc2c1)c1ccc(S(C)(=O)=O)cc1F [Compound 131, (E)-3-(4-((E)-2-(2-Fluoro-4-(methylsulfonyl)phenyl)-1-(1H-indazol-5-yl)but-1-en-1-yl)phenyl)acrylic acid] | ++ (++ = a single % value ≧ 40%) | > 100 | ≥ 40 | > 100 |
| CC/C(=C(/c1ccc(/C=C/C(=O)O)cc1)c1ccc2[nH]ncc2c1)c1ccc(O)cc1 [Compound 95, (E)-3-(4-((E)-2-(4-Hydroxyphenyl)-1-(1H-indazol-5-yl)but-1-en-1-yl)phenyl)acrylic acid] | ++ (++ = a single % value ≧ 40%) | ≤ 100 | ≥ 40 | ≤ 100 |
| CC/C(=C(/c1ccc(/C=C/C(=O)O)cc1)c1ccc2[nH]ncc2c1)c1cccc(S(C)(=O)=O)c1 [Compound 133, (E)-3-(4-((E)-1-(1H-Indazol-5-yl)-2-(3-(methylsulfonyl)phenyl)but-1-en-1-yl)phenyl)acrylic acid] | + (+ = a single % value < 40%) | > 100 | ≥ 40 | > 100 |
| COCCC/C(=C(/c1ccc(/C=C/C(=O)O)cc1)c1ccc2[nH]ncc2c1)c1ccccc1 [Compound 80, (E)-3-(4-((E)-1-(1H-Indazol-5-yl)-5-methoxy-2-phenylpent-1-en-1-yl)phenyl)acrylic acid] | ++ (++ = a single % value ≧ 40%) | > 100 | ≥ 40 | ≤ 100 |
| CC/C(=C(/c1ccc(/C=C/C(=O)O)cc1)c1ccc2[nH]ncc2c1)c1cccc(F)c1Cl [Compound 23, (E)-3-(4-((E)-2-(2-Chloro-3-fluorophenyl)-1-(1H-indazol-5-yl)but-1-en-1-yl)phenyl)acrylic acid] | ++ (++ = a single % value ≧ 40%) | ≤ 100 | ≥ 40 | ≤ 100 |
| CC/C(=C(/c1ccc(/C=C/C(=O)O)cc1)c1ccc2[nH]ncc2c1)c1cccc(CO)c1 [Compound 6, (E)-3-(4-((E)-2-(3-(Hydroxymethyl)phenyl)-1-(1H-indazol-5-yl)but-1-en-1-yl)phenyl)acrylic acid] | ++ (++ = a single % value ≧ 40%) | > 100 | ≥ 40 | ≤ 100 |
| CC/C(=C(/c1ccc(/C=C/C(=O)O)cc1)c1ccc2[nH]nc(F)c2c1)c1ccccc1 [Compound 86, (E)-3-(4-((E)-1-(3-Fluoro-1H-indazol-5-yl)-2-phenylbut-1-en-1-yl)phenyl)acrylic acid] | ++ (++ = a single % value ≧ 40%) | ≤ 100 | ≥ 40 | ≤ 100 |
| CC/C(=C(/c1ccc(/C=C/C(=O)O)cc1)c1ccc2[nH]ncc2c1)c1ccccc1C(F)(F)F [Compound 19, (E)-3-(4-((E)-1-(1H-Indazol-5-yl)-2-(2-(trifluoromethyl)phenyl)but-1-en-1-yl)phenyl)acrylic acid] | ++ (++ = a single % value ≧ 40%) | ≤ 100 | ≥ 40 | ≤ 100 |
| CC/C(=C(/c1ccc(/C=C/C(=O)O)cc1)c1ccc2[nH]ncc2c1)c1cccc(C)c1 [Compound 10, (E)-3-(4-((E)-1-(1H-Indazol-5-yl)-2-(m-tolyl)but-1-en-1-yl)phenyl)acrylic acid] | ++ (++ = a single % value ≧ 40%) | ≤ 100 | ≥ 40 | ≤ 100 |
| CC/C(=C(/c1ccc(/C=C/C(=O)O)cc1)c1ccc2[nH]ncc2c1Cl)c1ccccc1 [Compound 52, (E)-3-(4-((E)-1-(4-Chloro-1H-indazol-5-yl)-2-phenylbut-1-en-1-yl)phenyl)acrylic acid] | ++ (++ = a single % value ≧ 40%) | ≤ 100 | ≥ 40 | ≤ 100 |
| O=C(O)/C=C/c1ccc(/C(=C(/CCF)c2ccc(F)cc2Cl)c2ccc3[nH]ncc3c2)cc1 [Compound 120, (E)-3-(4-((E)-2-(2-Chloro-4-fluorophenyl)-4-fluoro-1-(1H-indazol-5-yl)but-1-en-1-yl)phenyl)acrylic acid] | ++ (++ = a single % value ≧ 40%) | ≤ 100 | ≥ 40 | ≤ 100 |
| CC/C(=C(/c1ccc(/C=C/C(=O)O)cc1)c1ccc2[nH]ncc2c1)c1cccc(OC)c1 [Compound 5, (E)-3-(4-((E)-1-(1H-indazol-5-yl)-2-(3-methoxyphenyl)but-1-en-1-yl)phenyl)acrylic acid] | ++ (++ = a single % value ≧ 40%) | ≤ 100 | ≥ 40 | ≤ 100 |
